Several values for one entry are separate records, joined by “and”; a condition that tells them apart may be missing. Identical values can stand only once.
Tests used:
[1] = test system: L1210 murine leukemia cells; experiment: In vitro phototoxicity on L1210 cells (MTT); format: cell-based; details: 1 μM, 30 min at 37° C.
Experimental: (i) Cell lines. The murine leukemia cell line (L1210) was maintained in suspension culture using Fischer's medium supplemented with 10% horse serum, 1 mM glutamine, 1 mM mercaptoethanol and gentamicin. The RIF (Radiation induced Fibrosarcoma) tumor was maintained as specified by Twentyman et al. (1980, “A new mouse tumor model system (RIF-1) for comparison of end-point studies”, J. Natl. Cancer Inst., 64, 595-604). Cultures were grown in Weymouth's medium containing 10% fetal calf serum and gentamycin.
(ii) In vitro phototoxicity. For studies on phototoxicity involving L1210 and RIF cells, light was provided by a 600 watt quartz-halogen source filtered with 10 cm of water and a 850 nm cut-off filter to remove IR. […] […] The cells were then washed free from the sensitizer, and transferred to fresh media. Irradiations were carried out at 10° C. For some studies, the cells were then labeled with fluorescent probes and sites of photodamage were assessed. In other studies, the cells were then incubated for 60 min at 37° C. in fresh medium to allow apoptosis to proceed. Viability studies were carried out using 96-well plates and a 72-hour MTT assay, in quadruplicate.
(iii) Cell Viability. Cell survival was assessed by the MTT reaction carried out 3 days after plating of 1,000-50,000 cells in 96 well plates. […] Absorbance at x nm was determined with a BioRad Plate reader. […]

[2] = test system: M2R mouse melanoma tumors; experiment: In vivo PDT of M2R melanoma tumors; parameters: species or system CD1 nude mice; details: 2.5 mg/Kg i.v., illuminated 30 min at 300 mW cm^−2; within 24 h
Experimental: (iv) Tumor implantation: Mice were implanted with 10^6 M2R cells on the back and tumors arose to the treatment size (7-8 mm) within 2-3 weeks.
(v) Light source: Osram 150 W halogen photo-optic lamp 64643 (D. K. Keller et al 1999, Int. J. Hyperthermia 15, 467-474) equipped with λ=650-900 mn spectral window, 300 mW/cm^−2. Illumination was for 30 min.
(vi) PDT protocol: The anesthetized mouse was i.v injected with the pigment and the tumor immediately illuminated. At the end of treatment the mouse was placed back in the cage. Photographs of the tumor were taken before and at the times indicated.
Preparation of sensitizer: Two mg Pd-BPheid were dissolved in 0.25 ml cremophor EL followed by 20 min sonication. 0.075 ml 1,2-propylene glycol were added and sonication was continued for another 15 min. Then 0.9 ml of […] were added followed by 5 min sonication. The sample was centrifuged for 12 min at 13,000 rpm (Eppendorf). The final calculated concentration of Pd-BPheid based on spectrum in chloroform was 0.5 mg/ml. […]
Preparation of sensitizer: Two mg Pd-BPheid were dissolved in 0.1 ml methanol, 0.1 ml 0.1M KH2PO4, pH=8.0 and 0.9 ml PBS and sonicated for 10 min. […] The sample was centrifuged for 8 min on 13,000 rpm the final calculated concentration of Pd-BPheid based on spectrum in chloroform was 0.5 mg/ml. […]

C3H/BA mammary carcinoma = experiment: In vivo PDT of BA mammary carcinoma; parameters: key to Summary (cures), symbol: −: no response
Experimental: Photodynamic therapy parameters: Mice with tumors measuring 5-7 mm in diameter were entered into PDT experiments. Three Pd-BPheid drug doses (1, 5 and 10 mg/kg) and two light doses (100 and 300 Joules/sq.cm) were evaluated. A formulation of Pd-BPheid dissolved in Cremophor was administered by i.v. tail injection. PDT light exposure was started either 15 minutes, 1 hour or 4 hours following injection. […] A titanium sapphire laser tuned to 757 nm was used as the light source for PDT. Laser generated light was coupled into quartz fibers for delivery of light to tumors. A light power density of 75 mW/sq.cm was used. Tumor size was measured 3 days per week following PDT treatments and the percentage of tumor cures (defined as no tumor recurrence for 40 days post treatment) was determined.
In vivo PDT Response: Tables 4 and 5 hereinafter provide summaries of the PDT treatment results for C3H mice transplanted with either the BA mammary carcinoma or the RIF-1 fibrosarcoma. Each table indicates the following parameters: 1) intravenous drug dose expressed in mg/kg; 2) laser treatment parameters, including the total light dose (J/cm^2), the wavelength (757 nm), the light dose rate (mW/cm^2), and the time interval ([…], 4) toxicity (four mice died shortly after treatment), 5) tumor regrowth (consisting of the number of days between PDT treatment and tumor recurrence) and 6) the number of mice (and percentage) with Pd-BPheid PDT induced tumor cures.

[3] = 1 mg/Kg i.v., 300 J/cm^2, 757 nm, 75 mW/cm^2, 15 min. interval
[4] = 5 mg/Kg i.v., 300 J/cm^2, 757 nm, 75 mW/cm^2, 1 HR interval
[5] = 5 mg/Kg i.v., 300 J/cm^2, 757 nm, 75 mW/cm^2, 15 min. interval
[6] = 10 mg/Kg i.v., 100 J/cm^2, 757 nm, 75 mW/cm^2, 1 HR interval
[7] = 10 mg/Kg i.v., 100 J/cm^2, 757 nm, 75 mW/cm^2, 15 min. interval
[8] = 10 mg/Kg i.v., 300 J/cm^2, 757 nm, 75 mW/cm^2, 1 HR interval
[9] = 10 mg/Kg i.v., 300 J/cm^2, 757 nm, 75 mW/cm^2, 4 HR interval

CC[C@H]1C2=NC(=Cc3c(C(C)=O)c(C)c4[n]3[Pd][n]3c(c(C)c5c3=C(C3=NC(=C4)[C@@H](C)[C@@H]3CCC(=O)O)[C@@H](C(=O)OC)C5=O)=C2)[C@@H]1C [Pd-BPheid, Pd-bacteriopheophorbide a]
cell killing ([1]; 75 mJ/cm^2 light at 760±5 nm): 50%
dose of light resulting in 50% cell killing ([1]; light at 760±5 nm): 75 mJ/cm^2
tumor response to PDT [2]: severe inflammatory response with necrosis of the tumor
Number of Animals with Primary Tumor Regrowth (Days to Recurrence) (C3H/BA mammary carcinoma; [3]): 1(1 day)
Summary (cures), symbol (C3H/BA mammary carcinoma; [3]): −
Toxicity (Treatment associated death) (C3H/BA mammary carcinoma; [3]): 0
Number of Animals with Primary Tumor Regrowth (Days to Recurrence) (C3H/BA mammary carcinoma; [4]): 1(11 days)
Summary (cures) % (C3H/BA mammary carcinoma; [4]): 66.66%
Summary (cures), number of animals (days) (C3H/BA mammary carcinoma; [4]): 2(41 days)
Toxicity (Treatment associated death) (C3H/BA mammary carcinoma; [4]): 0
Summary (cures) % (C3H/BA mammary carcinoma; [5]): 100%
Summary (cures), number of animals (days) (C3H/BA mammary carcinoma; [5]): 2(40 days)
Toxicity (Treatment associated death) (C3H/BA mammary carcinoma; [5]): 0
Number of Animals with Primary Tumor Regrowth (Days to Recurrence) (C3H/BA mammary carcinoma; [6]): 1(5 days)
Summary (cures) % (C3H/BA mammary carcinoma; [6]): 66.66%
Summary (cures), number of animals (days) (C3H/BA mammary carcinoma; [6]): 2(40 days)
Toxicity (Treatment associated death) (C3H/BA mammary carcinoma; [6]): 0
Summary (cures) % (C3H/BA mammary carcinoma; [7]): 100%
Summary (cures), number of animals (days) (C3H/BA mammary carcinoma; [7]): 2(42 days)
Toxicity (Treatment associated death) (C3H/BA mammary carcinoma; [7]): 0
Summary (cures) % (C3H/BA mammary carcinoma; [8]): 100%
Summary (cures), number of animals (days) (C3H/BA mammary carcinoma; [8]): 2(41 days) and 1(41 days)
Toxicity (Treatment associated death) (C3H/BA mammary carcinoma; [8]): 0
Number of Animals with Primary Tumor Regrowth (Days to Recurrence) (C3H/BA mammary carcinoma; [9]): 2(1 day)
Summary (cures), symbol (C3H/BA mammary carcinoma; [9]): −
Toxicity (Treatment associated death) (C3H/BA mammary carcinoma; [9]): 0
effectiveness of PDT (C3H/BA mammary carcinoma; 4-hour interval between drug administration and light treatment): not effective
responsiveness of BA mammary carcinoma compared with RIF-1 fibrosarcoma (C3H/BA mammary carcinoma; comparable PDT treatments): more responsive
effectiveness of PDT (C3H/BA mammary carcinoma; light treatments initiated within 1 hour of drug administration): effective
